Experimental data from patent US20110311485A1, “1,2,4-OXADIAZOLE DERIVATIVES AND THEIR THERAPEUTIC USE” (ALMIRALL S.A., priority 2008, published 2011).
pEC50: −log10 of the molar value.

target: S1P1 receptors (Homo sapiens, UniProt P21453); experiment: 35S-GTPyS binding assay; assay type: biochemical; settings: 35S-GTPyS binding on membranes; compound 0.1 nM-10 μM; 10 μM S1P as 100% maximum efficacy; 90 min at room temperature
Method: The effect of the compounds was measured using a 35S-GTPyS binding assay. Briefly, membranes were incubated in a buffer containing 20 mM HEPES pH 7.4, 100 mM NaCl, 10 mM MgCl2, 10 μM GDP, 50 μg/ml saponin and 0.2% fatty acid-free BSA at various concentrations (0.1 nM-10 μM) and 0.1 nM 35S-GTPyS. 10 μM S1P was used as 100% maximum efficacy. The assay was incubated for 90 min at room temperature with gentle mixing, and terminated by filtrating the reaction mixture through GF/C filter plates using the Manifold Filtration System. The filters were immediately washed with sodium phosphate pH 7.4 buffers. After drying the filter plates scintillant liquid were added to each well and 35S-GTPyS binding was measured on a Trilux Scintillation Counter.

S1P1 receptors, sequence (P21453 whole entry): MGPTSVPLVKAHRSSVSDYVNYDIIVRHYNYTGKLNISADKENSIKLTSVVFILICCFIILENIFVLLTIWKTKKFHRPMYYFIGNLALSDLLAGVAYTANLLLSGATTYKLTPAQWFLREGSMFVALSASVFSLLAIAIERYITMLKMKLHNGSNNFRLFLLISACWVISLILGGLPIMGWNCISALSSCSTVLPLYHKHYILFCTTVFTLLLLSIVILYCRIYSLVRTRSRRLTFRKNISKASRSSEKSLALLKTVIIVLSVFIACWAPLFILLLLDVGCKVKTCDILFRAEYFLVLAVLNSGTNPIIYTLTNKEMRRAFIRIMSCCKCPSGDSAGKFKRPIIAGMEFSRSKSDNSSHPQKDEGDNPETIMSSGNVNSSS

| Compound | pEC50 |
| --- | --- |
| CCn1nc(-c2nc(-c3ccc(S(N)(=O)=O)cc3)no2)c2c1CC(C)(C)CC2 [Example 5, 4-(5-(1-Ethyl-6,6-dimethyl-4,5,6,7-tetrahydro-1H-indazol-3-yl)-1,2,4-oxadiazol-3-yl)benzenesulfonamide] | 7.40 |
| CCn1nc(-c2nc(-c3ccc(N4CCN(CCC(=O)O)CC4)cc3)no2)c2c1CC(C)(C)CC2 [Example 8, 3-(4-(4-(5-(1-ethyl-6,6-dimethyl-4,5,6,7-tetrahydro-1H-indazol-3-yl)-1,2,4-oxadiazol-3-yl)phenyl)piperazin-1-yl)propanoic Acid] | 7.77 |
| CC1(C)CCc2c(-c3nc(-c4ccc(C(N)=O)cc4)no3)nn(Cc3ccccc3)c2C1 [Example 21, 4-(5-(1-Benzyl-6,6-dimethyl-4,5,6,7-tetrahydro-1H-indazol-3-yl)-1,2,4-oxadiazol-3-yl)benzamide] | 7.74 |
| CCn1nc(-c2nc(-c3ccncc3C)no2)c2c1CC(C)(C)CC2 [Example 36, 5-(1-Ethyl-6,6-dimethyl-4,5,6,7-tetrahydro-1H-indazol-3-yl)-3-(3-methylpyridin-4-yl)-1,2,4-oxadiazole] | 7.32 |
| CCn1nc(-c2nc(-c3ccc(CCC(=O)O)cc3C)no2)c2c1CC(C)(C)CC2 [Example 42, 3-(4-(5-(1-Ethyl-6,6-dimethyl-4,5,6,7-tetrahydro-1H-indazol-3-yl)-1,2,4-oxadiazol-3-yl)-3-methylphenyl)propanoic Acid] | 7.80 |
| CCn1nc(-c2nc(-c3ccc(CCN)cc3C)no2)c2c1CC(C)(C)CC2 [Example 48, 2-(4-(5-(1-Ethyl-6,6-dimethyl-4,5,6,7-tetrahydro-1H-indazol-3-yl)-1,2,4-oxadiazol-3-yl)-3-methylphenyl)ethanamine] | 8.10 |
| CCc1cc(-c2noc(-c3nn(CC(F)(F)F)c4c3CCC(C)(C)C4)n2)c(C)nc1O [Example 56, 5-(5-(6,6-Dimethyl-1-(2,2,2-trifluoroethyl)-4,5,6,7-tetrahydro-1H-indazol-3-yl)-1,2,4-oxadiazol-3-yl)-3-ethyl-6-methylpyridin-2-ol] | 7.51 |
| CCn1nc(-c2nc(-c3ccc4c(c3)CCC(NCC(=O)O)C4)no2)c2c1CC(C)(C)CC2 (stereo not drawn) [Example 68, 2-(6-(5-(1-Ethyl-6,6-dimethyl-4,5,6,7-tetrahydro-1H-indazol-3-yl)-1,2,4-oxadiazol-3-yl)-1,2,3,4-tetrahydronaphthalen-2-ylamino)ethanoic Acid] | 8.72 |
| Cc1cc(-c2noc(-c3noc4c3CCC(C)(C)C4)n2)cc(C)c1CCNCC(=O)O [Example 74] | 8.77 |
| Cc1cc(-c2noc(-c3nn(C)c4c3CCC(C)(C)C4)n2)cc(C)c1CCN1CC(C(=O)O)C1 [Example 91, 1-(2,6-Dimethyl-4-(5-(1,6,6-trimethyl-4,5,6,7-tetrahydro-1H-indazol-3-yl)-1,2,4-oxadiazol-3-yl)phenethyl)azetidine-3-carboxylic Acid] | 7.80 |
| CCn1nc(-c2nc(-c3ccc(S(=O)(=O)NCCC(=O)O)c(Cl)c3)no2)c2c1CC(C)(C)CC2 [Example 97, 3-(2-Chloro-4-(5-(1-ethyl-6,6-dimethyl-4,5,6,7-tetrahydro-1H-indazol-3-yl)-1,2,4-oxadiazol-3-yl)phenylsulfonamido)propanoic Acid] | 7.59 |
| CCn1nc(-c2noc(-c3ccncc3)n2)c2c1CC(C)(C)CC2 [Example 99, 3-(1-Ethyl-6,6-dimethyl-4,5,6,7-tetrahydro-1H-indazol-3-yl)-5-(pyridin-4-yl)-1,2,4-oxadiazole] | 6.84 |
| Cc1cc(-c2noc(-c3nn(C)c4c3CCC(C)(C)C4)n2)cc(C)c1CCNC(C)(C)C [Example 104, N-(2-{2,6-dimethyl-4-[5-(1,6,6-trimethyl-4,5,6,7-tetrahydro-1H-indazol-3-yl)-1,2,4-oxadiazol-3-yl]phenyl}ethyl)-2-methylpropan-2-amine] | 8.07 |
| CCn1nc(-c2nc(-c3ccc(S(=O)(=O)NCCC(=O)O)cc3C)no2)c2c1CC(C)(C)CC2 [Example 117, N-({4-[5-(1-ethyl-6,6-dimethyl-4,5,6,7-tetrahydro-1H-indazol-3-yl)-1,2,4-oxadiazol-3-yl]-3-methylphenyl}sulfonyl)-beta-alanine] | 7.93 |
| CCn1nc(-c2nc(-c3cc(C)c(CC(N)=O)c(C)c3)no2)c2c1CC(C)(C)CC2 [Example 137, 2-{4-[5-(1-ethyl-6,6-dimethyl-4,5,6,7-tetrahydro-1H-indazol-3-yl)-1,2,4-oxadiazol-3-yl]-2,6-dimethylphenyl}acetamide] | 8.44 |
| CCc1cc(-c2noc(-c3nn(CC)c4c3CCC(C)(C)C4)n2)c(C)nc1CCN [Example 138, (2-{3-ethyl-5-[5-(1-ethyl-6,6-dimethyl-4,5,6,7-tetrahydro-1H-indazol-3-yl)-1,2,4-oxadiazol-3-yl]-6-methylpyridin-2-yl}ethyl)amine] | 7.89 |
| Cc1cc(-c2nnc(-c3nn(C)c4c3CCC(C)(C)C4)s2)cc(C)c1OCCN [Example 139, (2-{2,6-dimethyl-4-[5-(1,6,6-trimethyl-4,5,6,7-tetrahydro-1H-indazol-3-yl)-1,3,4-thiadiazol-2-yl]phenoxy}ethyl)amine] | 8.14 |
| Cc1cc(-c2noc(-c3nn(C)c4c3CCC(C)(C)C4)n2)cc(C)c1CCO [Example 141, 2-{2,6-dimethyl-4-[5-(1,6,6-trimethyl-4,5,6,7-tetrahydro-1H-indazol-3-yl)-1,2,4-oxadiazol-3-yl]phenyl}ethanol] | 8.34 |
| Cc1cc(-c2noc(-c3nn(C)c4c3CCC(C)(C)C4)n2)cc(C)c1CCN1CCC(CC(=O)O)CC1 [Example 143, [1-(2-{2,6-dimethyl-4-[5-(1,6,6-trimethyl-4,5,6,7-tetrahydro-1H-indazol-3-yl)-1,2,4-oxadiazol-3-yl]phenyl}ethyl)piperidin-4-yl]acetic acid] | 8.29 |
| Cc1cc(-c2noc(-c3nn(C)c4c3CCC(C)(C)C4)n2)cc(C)c1CCN[C@@H](C)C(=O)O [Example 146, N-(2-{2,6-dimethyl-4-[5-(1,6,6-trimethyl-4,5,6,7-tetrahydro-1H-indazol-3-yl)-1,2,4-oxadiazol-3-yl]phenyl}ethyl)-L-alanine] | 8.85 |
| CCn1nc(-c2nc(-c3ccc(CCNCC(=O)O)c(C(F)(F)F)c3)no2)c2c1CC(C)(C)CC2 [Example 162, N-{2-[4-[5-(1-ethyl-6,6-dimethyl-4,5,6,7-tetrahydro-1H-indazol-3-yl)-1,2,4-oxadiazol-3-yl]-2-(trifluoromethyl)phenyl]ethyl}glycine] | 9.25 |
| Cc1cc(-c2noc(-c3noc4c3CCC(C)(C)C4)n2)cc(C)c1CC(O)CO (stereo not drawn) [Example 170, 3-{4-[5-(6,6-dimethyl-4,5,6,7-tetrahydro-1,2-benzisoxazol-3-yl)-1,2,4-oxadiazol-3-yl]-2,6-dimethylphenyl}propane-1,2-diol] | 8.08 |
| CCn1nc(-c2nc(-c3cccc4[nH]ccc34)no2)c2c1CC(C)(C)CC2 [Example 187, 5-(1-ethyl-6,6-dimethyl-4,5,6,7-tetrahydro-1H-indazol-3-yl)-3-(1H-indol-4-yl)-1,2,4-oxadiazole] | 8.00 |
| Cn1nc(-c2nnc(-c3ccc(CCN4CC(C(=O)O)C4)c(C(F)(F)F)c3)s2)c2c1CC(C)(C)CC2 [Example 198, 1-(2-(trifluoromethyl)-4-(5-(1,6,6-trimethyl-4,5,6,7-tetrahydro-1H-indazol-3-yl)-1,3,4-thiadiazol-2-yl)phenethyl)azetidine-3-carboxylic Acid] | 7.92 |
